Entries after “also recorded” stand apart in the source; their conditions may differ.
Key:
[1] = system: A375P human melanoma cell line; experiment: Antiproliferative activity to A375P human melanoma cell line; assay type: cell-based
Procedure: The antiproliferative activity of the compounds of Examples to A375P human melanoma cell line and U937 human leukemic monocyte lymphoma cell line are evaluated and listed in the following Table 1.

GSK3b = GSK3b (Homo sapiens, UniProt P49841); experiment: Kinase panel screening; assay type: biochemical; details: 10 μM concentration; read-out: Inhibition Rate (Unit: %) GSK3b
GSK3b, sequence (P49841 whole entry, species assumed): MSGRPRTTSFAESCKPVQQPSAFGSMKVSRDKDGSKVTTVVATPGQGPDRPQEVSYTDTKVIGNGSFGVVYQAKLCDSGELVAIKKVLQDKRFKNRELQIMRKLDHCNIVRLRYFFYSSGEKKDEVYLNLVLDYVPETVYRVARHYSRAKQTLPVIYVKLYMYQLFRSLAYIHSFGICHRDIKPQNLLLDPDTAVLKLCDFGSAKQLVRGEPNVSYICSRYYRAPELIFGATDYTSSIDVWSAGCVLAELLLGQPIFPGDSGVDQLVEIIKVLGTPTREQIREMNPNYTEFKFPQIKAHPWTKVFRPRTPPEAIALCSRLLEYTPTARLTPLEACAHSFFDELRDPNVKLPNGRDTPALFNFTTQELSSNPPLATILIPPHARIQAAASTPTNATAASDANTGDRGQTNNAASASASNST
Procedure: (§1) To Compound 10c of Example 23, kinase panel screening was carried out to 32 kinds of kinases in 10 μM concentration and the results are listed in the following Table 2.

IGF1R = IGF1R (Homo sapiens, UniProt P08069); experiment: Kinase panel screening; assay type: biochemical; details: 10 μM concentration; read-out: Inhibition Rate (Unit: %) IGF1R
IGF1R, sequence (P08069 31-1367, species assumed): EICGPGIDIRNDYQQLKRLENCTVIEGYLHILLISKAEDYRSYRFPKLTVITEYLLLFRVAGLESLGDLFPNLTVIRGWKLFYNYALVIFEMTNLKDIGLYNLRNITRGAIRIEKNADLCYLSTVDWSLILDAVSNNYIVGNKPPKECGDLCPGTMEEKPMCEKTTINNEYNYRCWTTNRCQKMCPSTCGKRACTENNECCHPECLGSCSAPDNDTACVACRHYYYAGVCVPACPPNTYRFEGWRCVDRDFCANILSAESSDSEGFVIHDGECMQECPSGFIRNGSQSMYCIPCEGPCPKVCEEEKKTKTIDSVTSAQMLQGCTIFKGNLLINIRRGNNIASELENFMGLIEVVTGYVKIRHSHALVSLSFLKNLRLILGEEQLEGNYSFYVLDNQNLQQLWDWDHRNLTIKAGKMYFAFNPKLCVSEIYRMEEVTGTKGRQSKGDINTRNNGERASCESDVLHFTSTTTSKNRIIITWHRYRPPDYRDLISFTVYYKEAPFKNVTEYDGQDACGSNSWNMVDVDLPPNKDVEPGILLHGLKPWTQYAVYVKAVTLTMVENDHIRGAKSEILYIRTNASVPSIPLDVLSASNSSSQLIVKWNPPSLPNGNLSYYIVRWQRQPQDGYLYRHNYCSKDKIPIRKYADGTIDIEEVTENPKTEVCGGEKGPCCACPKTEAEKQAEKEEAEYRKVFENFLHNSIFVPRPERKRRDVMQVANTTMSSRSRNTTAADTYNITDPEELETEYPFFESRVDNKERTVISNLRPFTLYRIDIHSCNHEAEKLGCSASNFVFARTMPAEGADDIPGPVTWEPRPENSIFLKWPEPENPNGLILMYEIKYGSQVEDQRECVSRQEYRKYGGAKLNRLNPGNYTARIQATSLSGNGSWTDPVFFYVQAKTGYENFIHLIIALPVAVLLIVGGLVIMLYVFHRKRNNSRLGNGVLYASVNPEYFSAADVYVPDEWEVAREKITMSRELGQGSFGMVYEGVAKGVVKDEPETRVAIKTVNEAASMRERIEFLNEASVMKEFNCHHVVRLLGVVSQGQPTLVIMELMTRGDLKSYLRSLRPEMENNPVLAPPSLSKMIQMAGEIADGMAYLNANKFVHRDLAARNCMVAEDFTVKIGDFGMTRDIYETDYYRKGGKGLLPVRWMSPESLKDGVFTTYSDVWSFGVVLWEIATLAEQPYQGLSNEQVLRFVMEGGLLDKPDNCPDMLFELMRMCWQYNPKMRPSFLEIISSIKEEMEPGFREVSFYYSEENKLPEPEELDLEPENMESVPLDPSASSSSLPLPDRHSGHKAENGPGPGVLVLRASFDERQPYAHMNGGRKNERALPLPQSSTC
Procedure: as §1

c-Kit = c-Kit (Homo sapiens, UniProt P10721); experiment: Kinase panel screening; assay type: biochemical; details: 10 μM concentration; read-out: Inhibition Rate (Unit: %) c-Kit
c-Kit, sequence (P10721 26-976): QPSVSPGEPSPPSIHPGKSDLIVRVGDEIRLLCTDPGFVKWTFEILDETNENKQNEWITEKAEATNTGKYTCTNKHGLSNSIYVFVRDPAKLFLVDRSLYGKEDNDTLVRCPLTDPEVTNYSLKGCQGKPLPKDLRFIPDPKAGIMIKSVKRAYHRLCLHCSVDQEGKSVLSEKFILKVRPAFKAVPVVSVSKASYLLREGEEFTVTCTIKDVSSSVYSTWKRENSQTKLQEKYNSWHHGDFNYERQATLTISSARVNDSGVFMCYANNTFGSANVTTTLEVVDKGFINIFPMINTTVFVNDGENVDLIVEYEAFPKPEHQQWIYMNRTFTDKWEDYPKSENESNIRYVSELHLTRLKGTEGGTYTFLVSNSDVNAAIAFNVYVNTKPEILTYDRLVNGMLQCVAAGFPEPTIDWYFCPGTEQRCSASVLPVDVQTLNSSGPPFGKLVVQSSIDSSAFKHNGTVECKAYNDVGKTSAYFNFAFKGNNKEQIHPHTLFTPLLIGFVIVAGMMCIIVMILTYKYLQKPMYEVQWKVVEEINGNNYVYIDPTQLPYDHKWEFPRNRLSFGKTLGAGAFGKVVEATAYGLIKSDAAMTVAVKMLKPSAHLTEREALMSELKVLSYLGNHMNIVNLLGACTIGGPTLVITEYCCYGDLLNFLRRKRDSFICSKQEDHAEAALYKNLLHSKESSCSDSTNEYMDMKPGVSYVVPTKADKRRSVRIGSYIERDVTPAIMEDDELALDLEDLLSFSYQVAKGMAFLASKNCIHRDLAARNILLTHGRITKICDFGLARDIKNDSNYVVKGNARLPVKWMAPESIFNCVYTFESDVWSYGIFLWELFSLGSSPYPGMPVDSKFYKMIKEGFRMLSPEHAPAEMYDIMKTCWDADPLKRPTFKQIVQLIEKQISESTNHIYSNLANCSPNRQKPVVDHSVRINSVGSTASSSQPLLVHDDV
Procedure: as §1

c-Src = c-Src (Homo sapiens, UniProt P12931); experiment: Kinase panel screening; assay type: biochemical; details: 10 μM concentration; read-out: Inhibition Rate (Unit: %) c-Src
c-Src, sequence (P12931 whole entry, species assumed): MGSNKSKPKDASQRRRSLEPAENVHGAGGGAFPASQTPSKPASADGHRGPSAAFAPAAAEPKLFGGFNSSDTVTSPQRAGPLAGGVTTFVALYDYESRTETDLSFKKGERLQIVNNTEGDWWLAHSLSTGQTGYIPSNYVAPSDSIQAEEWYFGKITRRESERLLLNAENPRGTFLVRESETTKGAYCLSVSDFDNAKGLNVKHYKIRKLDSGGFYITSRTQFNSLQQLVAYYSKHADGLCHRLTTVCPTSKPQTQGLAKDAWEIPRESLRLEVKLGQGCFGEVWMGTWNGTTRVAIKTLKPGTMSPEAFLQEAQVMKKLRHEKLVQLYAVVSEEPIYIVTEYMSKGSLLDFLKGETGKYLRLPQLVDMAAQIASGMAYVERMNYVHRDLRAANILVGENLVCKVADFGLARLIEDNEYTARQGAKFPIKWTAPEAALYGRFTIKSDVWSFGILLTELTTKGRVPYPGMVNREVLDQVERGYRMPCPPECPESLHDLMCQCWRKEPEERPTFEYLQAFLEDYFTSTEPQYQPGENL
Procedure: as §1

wild-type BRAF = wild-type BRAF (Homo sapiens, UniProt P15056); experiment: Enzymatic activity (IC50) to kinases; assay type: biochemical; details: read-out: IC50 (Unit: nM) BRAF
wild-type BRAF, sequence (P15056 whole entry): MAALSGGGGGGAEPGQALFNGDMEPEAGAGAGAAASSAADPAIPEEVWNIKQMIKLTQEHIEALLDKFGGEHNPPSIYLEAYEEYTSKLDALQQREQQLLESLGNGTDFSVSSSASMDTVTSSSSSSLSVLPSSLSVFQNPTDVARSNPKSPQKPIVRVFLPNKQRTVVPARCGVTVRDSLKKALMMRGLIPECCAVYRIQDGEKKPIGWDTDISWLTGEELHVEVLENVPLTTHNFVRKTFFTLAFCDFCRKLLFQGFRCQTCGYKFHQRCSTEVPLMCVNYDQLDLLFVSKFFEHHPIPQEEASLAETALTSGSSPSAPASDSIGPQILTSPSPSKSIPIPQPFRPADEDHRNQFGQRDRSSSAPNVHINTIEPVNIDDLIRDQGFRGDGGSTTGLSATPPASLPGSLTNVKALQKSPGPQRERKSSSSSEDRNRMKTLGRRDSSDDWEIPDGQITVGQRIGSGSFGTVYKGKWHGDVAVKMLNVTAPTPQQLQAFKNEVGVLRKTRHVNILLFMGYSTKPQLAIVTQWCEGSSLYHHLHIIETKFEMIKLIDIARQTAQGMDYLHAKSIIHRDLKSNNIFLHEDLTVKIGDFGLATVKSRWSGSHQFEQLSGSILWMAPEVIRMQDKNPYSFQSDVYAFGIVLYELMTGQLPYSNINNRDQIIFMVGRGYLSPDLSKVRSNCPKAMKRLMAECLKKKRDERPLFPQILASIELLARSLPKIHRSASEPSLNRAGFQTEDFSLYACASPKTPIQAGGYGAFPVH

BRAF (V600E) = BRAF (V600E) (Homo sapiens, UniProt P15056, V600E); experiment: Enzymatic activity (IC50) to kinases; assay type: biochemical; details: read-out: IC50 (Unit: nM) BRAF (V600E)
BRAF (V600E), sequence (P15056 whole entry V600E): as the sequence (P15056 whole entry) above, with V600E counted along it

cRAF1 = cRAF1 (Homo sapiens, UniProt P04049); experiment: Enzymatic activity (IC50) to kinases; assay type: biochemical; details: read-out: IC50 (Unit: nM) cRAF1
cRAF1, sequence (P04049 whole entry): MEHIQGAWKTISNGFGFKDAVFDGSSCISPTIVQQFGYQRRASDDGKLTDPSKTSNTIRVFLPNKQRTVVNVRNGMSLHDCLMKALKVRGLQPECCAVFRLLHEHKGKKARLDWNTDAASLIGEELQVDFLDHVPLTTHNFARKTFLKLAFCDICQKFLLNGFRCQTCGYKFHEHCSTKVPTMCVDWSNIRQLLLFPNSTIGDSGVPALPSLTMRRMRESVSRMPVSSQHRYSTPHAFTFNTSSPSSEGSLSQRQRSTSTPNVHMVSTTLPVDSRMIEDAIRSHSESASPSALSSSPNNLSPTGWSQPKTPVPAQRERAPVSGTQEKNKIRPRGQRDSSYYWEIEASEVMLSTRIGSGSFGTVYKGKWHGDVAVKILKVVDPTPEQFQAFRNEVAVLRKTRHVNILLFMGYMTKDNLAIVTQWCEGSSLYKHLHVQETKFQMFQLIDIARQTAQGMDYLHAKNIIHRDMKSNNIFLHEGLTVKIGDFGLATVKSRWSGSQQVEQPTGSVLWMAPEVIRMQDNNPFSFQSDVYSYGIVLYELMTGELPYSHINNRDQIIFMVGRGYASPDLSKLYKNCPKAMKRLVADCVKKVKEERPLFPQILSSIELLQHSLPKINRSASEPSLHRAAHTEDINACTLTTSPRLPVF

[2] = system: most other kinases except cKit (KIT) and p38a (MAPK14); experiment: Kinase panel screening, summary for the other kinases; assay type: biochemical; details: 10 μM concentration
Procedure: as §1

GI50 ([1]; A375P human melanoma cell line, read-out: A375P (GI50, Unit: μM)): 1.82 µM
inhibition at 10 µM (GSK3b): 34.5%
inhibition at 10 µM (IGF1R): 0%
inhibition at 10 µM (c-Kit): 63.8%
inhibition at 10 µM (c-Src): 2.1%
IC50 (wild-type BRAF): 186 nM
IC50 (BRAF (V600E)): 38.3 nM
IC50 (cRAF1): 8.79 nM
inhibition rate to most other kinases [2]: less than 30%
SMILES: C[C@H](O)CNc1nccc(-n2ccnc2Cc2cccc(NC(=O)Nc3ccc(C(F)(F)F)c(Cl)c3)c2)n1 [Example 23, (S)-1-(3-chloro-4-(trifluoromethyl)phenyl)-3-(3-((1-(2-((2-hydroxypropyl)amino)pyrimidin-4-yl)-1H-imidazol-2-yl)methyl)phenyl)urea]
potency against A375P, in words ([1]; A375P cell line, comparison with Sorafenib): large potencies; also recorded: better potencies than Sorafenib

— patent publication US9540348B2, “Imidazole-1-yl pyrimidine derivatives, or pharmacutically acceptable salt thereof, and pharmaceutic composition comprising the same as an active ingredient” (Industry-University Cooperation Foundation Hanyang …, priority 2015, dated 2017)
